Assay results reported in patent US12419886B2, “Parenteral formulations and uses thereof” (Eustralis Pharmaceuticals Limited, priority 2018, dated 2025).

Assays:
[1] = Solubility of Compound (Ia) 2HCl in water (ethanol also assessed); assay type: physicochemical
Method: Ethanol was also assessed as part of this study.

[2] = Excipient compatibility, 14 days stability (HPLC assay and related substances); assay type: physicochemical; details: 25° C./60% RH and 40° C./75% RH
Method: The successful formulation characteristics of a solution are its solubility and stability. The solvent system chosen must also be able to solubilise the drug at the desired concentration and must provide an environment where the drug has sufficient chemical stability. This study is an initial comparison of 2 weeks stability with potential excipients, and the % degradation was assessed. The excipients assessed are those typically found in liquid and freeze dried formulations. Excipient compatibility was investigated by subjecting a series of mixes containing active and excipient to elevated temperature for a nominated period and monitoring any degradation.
The solutions that were soluble in Table 3 were also prepared using Kolliphor 400 mg/mL in water and with Tween 80 as a solubiliser. These solutions were placed on stability at 25° C./60% RH and 40° C./75% RH for 14 days. The formulations was assessed for assay and related substances after 14 days of storage. Refer to Table 4 and 5 for the results.

pH of solution in water ([1]; 5 mg/mL): 2.39
Result (solubility in water) ([1]; 5 mg/mL (50 mg in 10 mL water)): Very soluble
pH of solution in water ([1]; 10 mg/mL): 2.14
Result (solubility in water) ([1]; 10 mg/mL (100 mg in 10 mL water)): Very soluble
pH of solution in water ([1]; 15 mg/mL): 2.02
Result (solubility in water) ([1]; 15 mg/mL (150 mg in 10 mL water)): Soluble
pH of solution in water ([1]; 20 mg/mL): 1.87
Result (solubility in water) ([1]; 20 mg/mL (200 mg in 10 mL water)): Soluble
pH of solution in water ([1]; 25 mg/mL): 1.81
Result (solubility in water) ([1]; 25 mg/mL (250 mg in 10 mL water)): Soluble
pH of solution in water ([1]; 30 mg/mL): 1.75
Result (solubility in water) ([1]; 30 mg/mL (300 mg in 10 mL water)): Soluble
pH of solution in water ([1]; 35 mg/mL): 1.72
Result (solubility in water) ([1]; 35 mg/mL (350 mg in 10 mL water)): Soluble
pH of solution in water ([1]; 40 mg/mL): 1.66
Result (solubility in water) ([1]; 40 mg/mL (400 mg in 10 mL water)): Soluble
pH of solution in water ([1]; 45 mg/mL): 1.54
Result (solubility in water) ([1]; 45 mg/mL (450 mg in 10 mL water)): Soluble
pH of solution in water ([1]; 50 mg/mL): 1.52
Result (solubility in water) ([1]; 50 mg/mL (500 mg in 10 mL water)): Soluble
Solubility ([1]; 50 mg/mL, sentence follows mention of ethanol): freely soluble
Stability in a range of formulations (conclusion) [2]: quite stable
Structure (SMILES): Cc1ccccc1-c1cc(N2CCN(C)CC2)ncc1C(=O)N(C)Cc1cc(C(F)(F)F)cc(C(F)(F)F)c1 [Compound (Ia) 2HCl]
